Results taken from patent publication EP4656642A1, “ESTROGEN RECEPTOR PROTEOLYSIS TARGETING CHIMERA COMPOUND AND USE THEREOF” (GAN & LEE PHARM CO., LTD, priority 2023, dated 2024).

Experiments:
Assay type in all cases: cell-based
ERα [1] = target: T1, ERα (Homo sapiens, UniProt P03372); assay: Degradation of ERα in T-47D cells (immunoblotting, 4 h); set-up: host or cells: T-47D
T1 sequence (P03372 1-595): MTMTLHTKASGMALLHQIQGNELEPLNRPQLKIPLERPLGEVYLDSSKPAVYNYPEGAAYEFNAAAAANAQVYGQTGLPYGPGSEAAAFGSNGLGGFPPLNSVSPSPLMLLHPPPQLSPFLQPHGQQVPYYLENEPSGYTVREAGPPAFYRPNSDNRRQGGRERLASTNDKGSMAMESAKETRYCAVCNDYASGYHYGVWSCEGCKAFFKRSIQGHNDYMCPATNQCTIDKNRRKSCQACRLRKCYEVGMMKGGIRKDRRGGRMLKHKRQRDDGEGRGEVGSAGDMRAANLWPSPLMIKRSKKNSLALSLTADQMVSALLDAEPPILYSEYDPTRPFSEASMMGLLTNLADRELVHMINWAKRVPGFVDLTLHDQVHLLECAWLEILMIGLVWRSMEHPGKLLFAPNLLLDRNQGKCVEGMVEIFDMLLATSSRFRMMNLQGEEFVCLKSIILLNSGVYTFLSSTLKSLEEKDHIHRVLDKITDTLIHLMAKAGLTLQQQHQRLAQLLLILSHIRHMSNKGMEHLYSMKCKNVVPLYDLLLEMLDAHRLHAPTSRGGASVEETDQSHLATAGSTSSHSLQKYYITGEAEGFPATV
Procedure, shortened: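 T-47D cells were treated with compound (final 0.15-1000 nM, DMSO) for 4 h at 37°C, 5% CO2. Cells were lysed in RIPA buffer with protease inhibitor, and ERα protein in the cleared lysate was measured by immunoblotting.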

ERα [2] = target: T1, ERα; assay: Degradation of ERα in MCF-7 cells (immunoblotting, 4 h)
Procedure, shortened: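 MCF-7 cells treated 4 h at 37°C with compounds at 0.15-1000nM final. ERα in lysates measured by immunoblot, with band grayscale normalized to an internal reference protein. Degradation rate calculated against DMSO-treated control.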

MCF-7 cells = assay: Inhibition of cell proliferation of MCF-7 cells (CCK-8, 9 days)
Procedure, shortened: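 MCF-7 cells seeded at 800 cells/well in DMEM with 10% FBS, exposed to a range of compound concentrations for 9 days at 37°C, 5% CO2. Viability read by CCK-8; IC50 derived for proliferation inhibition.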

T-47D cells = assay: Inhibition of cell proliferation in T-47D cells (CCK-8, 6 days); details: 6 days of treatment
Procedure, shortened: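 T-47D cells at 3,000 cells/well in RPMI 1640 with 10% FBS were exposed to a concentration series of PROTAC compounds for 6 days at 37 °C, 5% CO2. Viability was read by CCK-8, and IC50 values were derived for proliferation inhibition.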

[3] = treated for 9 days, CCK-8 kit (Table 6)
[4] = 9 days of treatment, CCK-8, Table 5

SMILES | Degradation rate (%) of ERα in T-47D cells (ERα [1]; 1nM compound) [%] | Degradation rate (%) of ERα in T-47D cells (ERα [1]; 10nM compound) [%] | Degradation rate (%) of ERα in MCF-7 cells (ERα [2]; 1nM compound) [%] | Degradation rate (%) of ERα in MCF-7 cells (ERα [2]; 10nM compound) [%] | IC50 (MCF-7 cells; [3]) [nM] | IC50 (T-47D cells; Table 3) [nM] | IC50 (T-47D cells; Table 2) [nM] | IC50 (MCF-7 cells; [4]) [nM]
C[C@@H]1Cc2c(ccc3[nH]ncc23)[C@@H](c2ccc(N3CCN(C[C@H]4CC[C@H](C(=O)N5CCC6(CC5)COc5c6ccc6c5CN(C5CCC(=O)NC5=O)C6=O)CC4)CC3)cn2)N1CC(F)(F)F (stereo partly drawn) [A117] | 66 | 77 | 48 | 47 | 63.3 | 10.1 | – | –
O=C1CCC(N2Cc3c(ccc4c3OCC43CCN(C(=O)CC4CCN(C(=O)C5CCN(c6ccc([C@@H]7c8ccc(O)cc8CC[C@@H]7c7ccccc7)cc6)CC5)CC4)CC3)C2=O)C(=O)N1 (stereo partly drawn) [A123] | 66 | 84 | 29 | 61 | 164 | 1.34 | – | –
O=C1CCC(N2C(=O)c3cc4c(cc3C2=O)OC2(CC4)CN(C3CCC4(CC3)CN(c3ccc(C5c6ccc(O)cc6CCC5c5ccccc5)cc3)C4)C2)C(=O)N1 (stereo not drawn) [B7] | – | 19 | – | -6 | > 100 | – | 1000 | –
O=C1CCC(N2Cc3cc4c(cc3C2=O)OC2(CC4)CN(C3CCC4(CC3)CN(c3ccc(C5c6ccc(O)cc6CCC5c5ccccc5)cc3)C4)C2)C(=O)N1 (stereo not drawn) [B8] | – | 33 | – | 16 | 6.57 | 31 | 2.9 | 90
O=C1CCC(N2Cc3cc4c(cc3C2=O)OC2(CC4)CN(C3CCC4(CC3)CN(c3ccc([C@@H]5c6ccc(O)cc6CC[C@@H]5c5ccccc5)cc3)C4)C2)C(=O)N1 (stereo partly drawn) [B9] | 16 | 45 | 0 | 17 | 86 | 7 | – | –
O=C1CCC(N2Cc3cc4c(cc3C2=O)CCC2(CN(C3CCC5(CC3)CN(c3ccc([C@@H]6c7ccc(O)cc7CC[C@@H]6c6ccccc6)cc3)C5)C2)O4)C(=O)N1 (stereo partly drawn) [B10] | 5 | 46 | 3 | 23 | 37 | 3 | 6.6 | 40
O=C1CCC(N2C(=O)c3cc4c(cc3C2=O)OC2(CC4)CN(CC3CC4(CCN(c5ccc([C@@H]6c7ccc(O)cc7CC[C@@H]6c6ccccc6)cc5)CC4)C3)C2)C(=O)N1 (stereo partly drawn) [B11] | -34 | -38 | -40 | -16 | 4610 | 55 | – | –
O=C1CCC(N2Cc3cc4c(cc3C2=O)CCC2(CN(CC3CC5(CCN(c6ccc([C@@H]7c8ccc(O)cc8CC[C@@H]7c7ccccc7)cc6)CC5)C3)C2)O4)C(=O)N1 (stereo partly drawn) [B12] | -17 | -4 | -8 | -11 | 950 | 33 | – | –
O=C1CCC(N2Cc3cc4c(cc3C2=O)CCC2(CN(C3CCC(N5CCN(c6ccc([C@@H]7c8ccc(O)cc8CC[C@@H]7c7ccccc7)cc6)CC5)CC3)C2)O4)C(=O)N1 (stereo partly drawn) [B15] | -4 | 3 | -13 | -18 | 48.3 | 31.7 | – | –
C[C@H]1CN(c2ccc([C@@H]3c4ccc(O)cc4CC[C@@H]3c3ccccc3)cc2)CCN1C[C@H]1CC[C@H](C(=O)N2CCC3(CC2)COc2c3ccc3c2CN(C2CCC(=O)NC2=O)C3=O)CC1 (stereo partly drawn) [B36] | 54 | 68 | 55 | 55 | 21700 | 1.03 | – | –
CC1(CN2CCC3(CC2)COc2c3ccc3c2CN(C2CCC(=O)NC2=O)C3=O)CCN(CC2CCN(c3ccc([C@@H]4c5ccc(O)cc5CC[C@@H]4c4ccccc4)cc3)CC2)CC1 (stereo partly drawn) [B37] | 12 | 36 | 11 | 41 | 2800 | 8.54 | – | –
C[C@@H]1Cc2c(ccc3[nH]ncc23)[C@@H](c2c(F)cc(N3CCC(C(=O)N4CCC(N5CCC6(CC5)COc5c6ccc6c5CN(C5CCC(=O)NC5=O)C6=O)CC4)CC3)cc2F)N1CC(F)F (stereo partly drawn) [B38] | 57 | 63 | 63 | 57 | 90.5 | 1.23 | – | –
O=C1CCC(N2Cc3c(ccc4c3OCC43CCN(C(=O)c4ccc(CN5CCN(c6ccc([C@@H]7c8ccc(O)cc8CC[C@@H]7c7ccccc7)cc6)CC5)cc4)CC3)C2=O)C(=O)N1 (stereo partly drawn) [B39] | 47 | 66 | 41 | 49 | 25100 | 1.83 | – | –
C[C@@H]1CN(C(=O)C2CCN(c3cc(F)c(C4c5ccc6[nH]ncc6c5C[C@@H](C)N4CC(F)F)c(F)c3)CC2)CCC1N1CCC2(CC1)COc1c2ccc2c1CN(C1CCC(=O)NC1=O)C2=O (stereo partly drawn) [B40] | 64 | 68 | 54 | 61 | 45.3 | 1 | – | –
O=C1CCC(N2Cc3c(ccc4c3OCC43CCN(C(=O)c4ccc(CN5CCN(c6ccc([C@@H]7c8ccc(O)cc8CC[C@@H]7c7ccccc7)cc6)CC5)cn4)CC3)C2=O)C(=O)N1 (stereo partly drawn) [B41] | 66 | 74 | 59 | 53 | 29200 | 0.75 | – | –
C[C@@H]1Cc2c(ccc3[nH]ncc23)C(c2ccc(N3CCC(C(=O)N4CCC(N5CCC6(CC5)COc5c6ccc6c5CN(C5CCC(=O)NC5=O)C6=O)CC4)CC3)cn2)N1CC(F)(F)F (stereo partly drawn) [B42] | 3 | 13 | 17 | 26 | 90900 | 2460 | – | –
CCN(C1CCN(c2ccc([C@@H]3c4ccc(O)cc4CC[C@@H]3c3ccccc3)cc2)CC1)[C@H]1CC[C@@H](C(=O)N2CCC3(CC2)COc2c3ccc3c2CN(C2CCC(=O)NC2=O)C3=O)CC1 (stereo partly drawn) [B43] | 57 | 80 | 54 | 62 | 232 | 4.04 | – | –
O=C1CCC(N2Cc3c(ccc4c3OCC43CCN(C(=O)c4ccc(CN5CCN(c6ccc([C@@H]7c8ccc(O)cc8CC[C@@H]7c7ccccc7)cc6)CC5)nc4)CC3)C2=O)C(=O)N1 (stereo partly drawn) [B47] | 59 | 65 | 28 | 33 | 27100 | 1.29 | – | –
O=C1CCC(N2Cc3c(ccc4c3OCC43CCN(C(=O)[C@H]4CC[C@@H](N(CC5CC5)C5CCN(c6ccc([C@@H]7c8ccc(O)cc8CC[C@@H]7c7ccccc7)cc6)CC5)CC4)CC3)C2=O)C(=O)N1 (stereo partly drawn) [B48] | 61 | 80 | 63 | 74 | 33.5 | 4.35 | – | –
C[C@@H]1Cc2c(ccc3[nH]ncc23)C(c2ccc(N3CC4(CCC(N5CCC6(CC5)COc5c6ccc6c5CN(C5CCC(=O)NC5=O)C6=O)CC4)C3)cn2)N1CC(F)(F)F (stereo partly drawn) [B49] | 42 | 68 | 24 | 43 | 7150 | 316 | – | –
